# Experimental data from paper PMC1458349, “Evaluation of high-dose daptomycin for therapy of experimental Staphylococcus aureus foreign body infection” (BMC Infectious Diseases, 2006).
# Where “and” joins values, the source holds several entries; their conditions need not be identical. Identical values can stand only once. Like-named read-outs stand apart in the source and are kept apart here.
# Experiments:
# [1] = tested on: methicillin-susceptible S. aureus (MSSA) strain I20; experiment: microbe, parasite or virus in culture; format: cell-based, Staphylococcus aureus
# Protocol: To screen for the possible carryover effects of each antibiotic during the MBC determinations, 0.1-mL portions were taken from all tubes with no visible growth. These were subcultured, either undiluted or diluted 10-fold in saline, on Mueller-Hinton agar (MHA) for 36 h at 37°C. The MBC was defined as the lowest concentration that killed 99.9% of the original inoculum. Each MIC and MBC determination was performed three times and the modal values are presented. In additional control experiments, MICs and MBCs were performed in CAMHB supplemented with 50% TCF.
# [2] = rat, in vivo, cited from earlier work
# [3] = rats, cited from earlier work
# [4] = Screening of side effects: serum liver, kidney and muscle markers; format: in vivo, rat
# Protocol: To check for potential side effects of the twice-daily 30 mg/kg daptomycin regimen, serum samples of the daptomycin-treated and control rats were collected at day 8 for determination of liver, kidney, and muscle enzyme markers, namely aspartate aminotransferase (ASAT) and alanine aminotransferase (ALAT) activities, serum creatinine, and creatine kinase, respectively, using standard analytical methods.
# in vivo [5] = conditions: Wistar, rat, tissue cage fluid (TCF), ip, 30 mg/kg
# Protocol: (§1) For each time point, the mean (± SEM) daptomycin levels in plasma from four animals was determined.
# [6] = Pharmacokinetic levels in rat plasma; conditions: 30 mg/kg i.p. twice daily, day 4
# Protocol: as §1
# in vivo [7] = conditions: rat, plasma, ip, 30 mg/kg
# Protocol: as §1
# [8] = Pharmacokinetic levels in rat tissue cage fluid (TCF)
# Protocol: as §1
# [9] = rats, 30 mg/kg once daily, cited from earlier work
# [10] = tested on: methicillin-susceptible S. aureus (MSSA) strain I20; experiment: MIC, standard tube macrodilution (CLSI); format: cell-based; conditions: Staphylococcus aureus
# Protocol: The methicillin-susceptible S. aureus (MSSA) strain I20 is a previously described clinical isolate from catheter-related sepsis, which is highly virulent in the rat model of chronic S. aureus tissue cage infection. Strain I20 is uniformly susceptible to all antibiotics except penicillin.
# The MICs of oxacillin and vancomycin for strain I20 were determined in cation-adjusted Mueller-Hinton broth (CAMHB) containing 20-25 mg/L Ca^2+ and 10-12.5 mg/L Mg^2+ by the standard tube macrodilution method with an average inoculum of 10^6 CFU/mL as described by the Clinical Laboratory Standards Institute (CLSI). For daptomycin MIC, CAMHB was supplemented with additional calcium to a physiological concentration of 50 mg/L Ca^2+ (CSMHB).
# Each MIC and MBC determination was performed three times and the modal values are presented. In additional control experiments, MICs and MBCs were performed in CAMHB supplemented with 50% TCF.
# MSSA strain I20 [11] = format: in vivo, Staphylococcus aureus; conditions: Wistar rats, i.p. twice daily for 7 days: daptomycin 30 mg/kg, oxacillin 200 mg/kg, vancomycin 50 mg/kg, mean ± SEM, n = 18-19 cages; for average counts in tissue cages at the end of the 7-day therapy: TCF cultured 12 h after last dose; for reduction in bacterial counts in TCF (delta log10 CFU/mL, day 1 to day 8): P < 0.001 vs untreated
# Protocol: All animal studies of the daptomycin no 1-study were performed in 1991. These animal studies followed ethical guidelines of that time period and received legal approval from the Veterinary Office of the State of Geneva. Subcutaneous surgical implantation of four tissue cages per animal was performed as described by using Wistar rats that were anaesthetised with an intraperitoneal (i.p.) injection of a mixture of ketamine (90 mg/kg) and xylazine (5 mg/kg). At 3 weeks post-implantation, TCF was aspirated and checked for sterility. To establish a chronic S. aureus infection, tissue cages were inoculated with 0.1 mL of saline containing 0.2 × 10^6 to 2 × 10^6 CFU of a washed overnight culture of strain I20 in CAMHB. Three weeks later, all tissue cages containing more than 10^5 CFU/mL of TCF were included in the therapeutic protocols.
# Rats infected with strain I20 were randomised to receive (by the i.p. route for 7 days) twice-daily regimens of either daptomycin (30 mg/kg), oxacillin (200 mg/kg), or vancomycin (50 mg/kg), or were left untreated. At 12 h after the last injection of antibiotic, quantitative cultures of 10-fold serially diluted TCF were performed on MHA. To optimise the yield of viable bacteria, TCF were briefly sonicated (60 W, 1 min) to disrupt the biofilm and phagocytic cells before the serial dilutions and plating. Plates were incubated for 24-48 h at 37°C. The detection limit was one colony equivalent to 2 log10 CFU/mL of TCF. The differences in CFU counts between day 1 and day 8 were determined and expressed as delta log10CFU/mL. For each treatment group, results were expressed as means ± standard errors of the means (SEM). Comparison of bacterial counts in the different groups was performed by ANOVA and Newman-Keuls multiple comparisons procedures using Microsoft Excel® 2000 software. Data were considered significant when P was < 0.05 by using two-tailed significance levels.
# MSSA strain I20 [12] = experiment: Killing kinetic (time-kill) studies; format: cell-based, Staphylococcus aureus; conditions: 8 mg/L in CAMHB; 10^6 CFU exponential-phase; 37°C; one representative of three experiments
# Protocol: 0.1-mL portions containing 10^6 CFU of strain I20 (obtained from exponential-phase cultures) were added to sterile plastic tubes containing 1 mL of either CSMHB containing 8 mg/L of daptomycin, or CAMHB containing 8 mg/L of oxacillin or vancomycin, in a shaking waterbath at 37°C. The number of viable organisms was determined by subculturing 50 μL of 10-fold diluted portions on MHA after 0, 2, 4, 6, and 24 h of incubation. Colonies were enumerated with a laser colony counter (Spiral System) after 48 h of incubation at 37°C. The detection limit was 2 log10 CFU/mL. […] Each killing kinetic experiment was repeated three times and results from one representative experiment are presented.
# [13] = Staphylococcus aureus, MSSA, CAMHB, lowest concentration killing 99.9% of inoculum, subculture on MHA 36 h 37°C, modal value of 3, read-out: MBC
# [14] = twice-daily oxacillin 200 mg/kg or vancomycin 50 mg/kg
smiles,measurement,setting,value
CCCCCCCCCC(=O)N[C@@H](Cc1c[nH]c2ccccc12)C(=O)N[C@H](CC(N)=O)C(=O)N[C@@H](CC(=O)O)C(=O)N[C@@H]1C(=O)NCC(=O)N[C@@H](CCCN)C(=O)N[C@@H](CC(=O)O)C(=O)N[C@H](C)C(=O)N[C@@H](CC(=O)O)C(=O)NCC(=O)N[C@H](CO)C(=O)N[C@@H]([C@H](C)CC(=O)O)C(=O)N[C@@H](CC(=O)c2ccccc2N)C(=O)O[C@@H]1C [daptomycin],MBC,"[1]; methicillin-susceptible strain I20, 36 h",1 µg/mL
same,plasma AUC0-24h,[2]; 25 mg/kg,278 µg·h/mL
same,plasma AUC0-24h,[2]; 40 mg/kg,605 µg·h/mL
same,TCF AUC0-24h as percentage of plasma AUC0-24h,[3]; 30 mg/kg daily regimen (printed as daptomycin no 1-study),35%
same,TCF AUC0-24h,[3]; 30 mg/kg once daily,196 µg·h/mL
same,TCF level at 12 h (intermediate value),[3]; 30 mg/kg once daily,10.0 mg/L
same,mean peak level in TCF,[3]; 30 mg/kg once daily,11.8 mg/L
same,mean trough level in TCF,[3]; 30 mg/kg once daily,3.4 mg/L
same,exterior signs of toxicity,[4]; rats receiving twice-daily doses (30 mg/kg),No exterior sign of toxicity
same,liver toxicity (overall assessment),"[4]; rats treated with high-dose daptomycin (30 mg/kg twice daily, 7 days)",only mild liver toxicity
same,ALAT (alanine aminotransferase) activity in serum,"[4]; rats, 30 mg/kg i.p. twice daily for 7 days, serum at day 8, n = 5, control 41 ± 11",46 ± 9 IU/L
same,serum creatinine,"[4]; rats, 30 mg/kg i.p. twice daily for 7 days, serum at day 8, n = 5, control 50 ± 5",53 ± 5 μM/L
same,ASAT (aspartate aminotransferase) activity in serum,"[4]; rats, 30 mg/kg i.p. twice daily for 7 days, serum at day 8, n = 5, control 146 ± 36",216 ± 24 IU/L
same,creatine kinase in serum,"[4]; rats, 30 mg/kg i.p. twice daily for 7 days, serum at day 8, n = 5, control 1349 ± 820",1393 ± 886 IU/L
same,level at 4 day,in vivo [5],21000 ng/mL
same,plasma AUC0-24h,"[6]; rats, AUC0-12 by linear trapezoidal rule multiplied by two",1667 µg·h/mL
same,mean peak plasma level,"[6]; uninfected rats, at 1 h, microbiological assay, mean of four animals",173 mg/L
same,level at 12 h,in vivo [7],9100 ng/mL
same,TCF AUC0-24h,"[8]; rats, 30 mg/kg i.p. twice daily, day 4, AUC0-12 by linear trapezoidal rule multiplied by two",1073 µg·h/mL
same,TCF AUC0-24h as percentage of plasma AUC0-24h,"[8]; rats, 30 mg/kg twice-daily regimen (printed as daptomycin no 2-study)",64%
same,mean peak level in TCF,"[8]; uninfected rats, 30 mg/kg i.p. twice daily, day 4, microbiological assay, mean of six animals",66 mg/L
same,plasma AUC0-24h,[9],558 µg·h/mL
same,peak plasma level,"[9]; day 4, HPLC",141 mg/L
same,trough plasma level,"[9]; day 4, HPLC",0 mg/L
same,plasma level at 12 h,[9]; day 4,1000 ng/mL
Cc1onc(-c2ccccc2)c1C(=O)N[C@@H]1C(=O)N2[C@@H]1SC(C)(C)[C@@H]2C(=O)O [oxacillin],MBC,[1]; [13],1 µg/mL
same,trough TCF level,[3]; [14],5.7 mg/L
same,MIC,"[10]; CAMHB (20-25 mg/L Ca2+, 10-12.5 mg/L Mg2+), tube macrodilution, inoculum 10^6 CFU/mL, modal value of 3 determinations, read-out: MIC",0.5 µg/mL
same,average counts in tissue cages at the end of the 7-day therapy,MSSA strain I20 [11],5.90 ± 0.25 log10 CFU/mL
same,"reduction in bacterial counts in TCF (delta log10 CFU/mL, day 1 to day 8)",MSSA strain I20 [11],0.92 log10 CFU/mL and 0.92 ± 0.21 log10 CFU/mL
same,time after which reduction in viable counts exceeded 3 log10 CFU/mL,MSSA strain I20 [12],4 h
CN[C@H](CC(C)C)C(=O)N[C@H]1C(=O)N[C@@H](CC(N)=O)C(=O)N[C@H]2C(=O)N[C@H]3C(=O)N[C@H](C(=O)N[C@H](C(=O)O)c4cc(O)cc(O)c4-c4cc3ccc4O)[C@H](O)c3ccc(c(Cl)c3)Oc3cc2cc(c3O[C@@H]2O[C@H](CO)[C@@H](O)[C@H](O)[C@H]2O[C@H]2C[C@](C)(N)[C@H](O)[C@H](C)O2)Oc2ccc(cc2Cl)[C@H]1O [vancomycin],MBC,[1]; [13],2 µg/mL
same,peak TCF level,[3]; [14],12 mg/L
same,trough TCF level,[3]; [14],2 mg/L
same,MIC,[10],1 µg/mL
same,average counts in tissue cages at the end of the 7-day therapy,MSSA strain I20 [11],5.49 ± 0.21 log10 CFU/mL
same,"reduction in bacterial counts in TCF (delta log10 CFU/mL, day 1 to day 8)",MSSA strain I20 [11],0.96 log10 CFU/mL and 0.96 ± 0.24 log10 CFU/mL
same,time after which reduction in viable counts exceeded 3 log10 CFU/mL,MSSA strain I20 [12],4 h
